Measured values taken from article PMC9841576, “Characterisation of C101248: A novel selective THIK-1 channel inhibitor for the modulation of microglial NLRP3-inflammasome” (Neuropharmacology, 2023).

Tests used:
[1] = target: T1, THIK-1 K+ currents in microglia (Mus musculus, UniProt Q8R1P5); assay: Whole-cell patch clamp of microglia in acute hippocampal slices, wild-type mice; format: cell-based
T1 construct: To study the effect of C10248 in native brain tissue; from tissue; host or cells: microglia in acute hippocampal slices of 3-4 month old Cx3Cr1-GFP mice
Method: Acute hippocampal slices (300 μm thick), from 3 to 4 months old mice, were prepared using a specially adapted protective slicing solution ([Ting et al., 2014]) containing (mM) 93 choline chloride, 20 HEPES, 30 NaHCO3, 2.5 KCl, 0.5 CaCl2, 10 MgCl2, 1.2 NaH2PO4, 25 glucose, 1 kynurenic acid, 5 Na-ascorbate, 3 Na-pyruvate, pH adjusted to 7.4, bubbled with 95% O2/5% CO2 and cooled at <4 °C, and a recovery solution containing (mM) 92 NaCl, 20 HEPES, 30 NaHCO3, 2.5 KCl, 2 CaCl2, 1 MgCl2, 1.2 NaH2PO4, 25 glucose, 1 kynurenic acid, 5 Na-ascorbate, 3 Na-pyruvate, pH set to 7.4 and bubbled with 95% O2/5% CO2
Immediately after slicing, slices were placed for 13 min in warm (33–35 °C) slicing solution and then transferred to recovery solution at room temperature until experimental usage. […] Slices were perfused with bicarbonate-buffered solution, at 34–36 °C for all experiments, containing (mM) 124 NaCl, 2.5 KCl, 26 NaHCO3, 1 NaH2PO4, 2 CaCl2, 1 MgCl2, 10 glucose, bubbled with 95% O2/5% CO2. Microglia were whole-cell clamped with electrodes containing K-gluconate based solution, comprising (mM) 130 K-glu, 4 NaCl, 1 CaCl2, 10 HEPES, 10 EGTA, 4 MgATP, 0.5 Na2GTP, pH set to 7.2 with KOH and osmolarity adjusted to […]. […] Currents were filtered at 1 kHz, digitized (10 kHz) and analysed off-line using pClamp10 software.

CNS PK study in rats = format: in vivo; conditions: Sprague Dawley, rat, brain (unbound) / plasma (unbound), 10 or 30 mg/kg oral, 1, 2 or 4 h post dose, read-out: Kpu,u
Method: In CNS PK studies, rodents (C57BL/6 mice or Sprague Dawley rats) were administered C101248 by oral gavage at 10 or 30 mg/kg. At specified timepoints post dose (0.5, 1, 2 or 4 h), blood samples were collected and processed to plasma (centrifugation at 5000 rpm, 4 °C for 10 min). Immediately following blood withdrawal, cerebrospinal fluid (CSF) samples were collected from the cisterna magna, whole body perfusion was conducted, and brain samples were collected and weighed. Samples were stored frozen at −80 ± 10 °C until analysis. Plasma, CSF, and brain samples were analysed using a fit for purpose bioanalytical method (LC-MS/MS) against a calibration curve containing QC samples. Brain:plasma and CSF:plasma were calculated based on brain concentration/plasma concentration at the same timepoint. Unbound partition coefficient (Kpu,u) values were calculated based on unbound brain concentration/unbound plasma concentration at the same timepoint. Unbound concentrations were derived by adjusting plasma concentrations for the fraction unbound in plasma based on in vitro plasma protein binging (PPB) values and brain concentrations for the unbound fraction in brain tissue based on in vitro brain tissue binding (BTB) values.

GSK3β (h) = GSK3β (h) (Homo sapiens, UniProt P49841); assay: Kinase selectivity; format: biochemical
Excerpt: (§1) Supplement mmc1.docx, table 1 | column: IC50 (μM)

PKA (h) = PKA (h) (Homo sapiens, UniProt P17612); assay: Kinase selectivity; format: biochemical
Excerpt: as §1

ROCK-1 (h) = ROCK-1 (h) (Homo sapiens, UniProt Q13464); assay: Kinase selectivity; format: biochemical
Excerpt: as §1

ROCK-2 (h) = ROCK-2 (h) (Homo sapiens, UniProt O75116); assay: Kinase selectivity; format: biochemical
Excerpt: as §1

Syk (h) = Syk (h) (Homo sapiens, UniProt P43405); assay: Kinase selectivity; format: biochemical
Excerpt: as §1

p70S6K (h) = p70S6K (h) (Homo sapiens, UniProt P23443); assay: Kinase selectivity; format: biochemical
Excerpt: as §1

T1 sequence (Q8R1P5 whole entry): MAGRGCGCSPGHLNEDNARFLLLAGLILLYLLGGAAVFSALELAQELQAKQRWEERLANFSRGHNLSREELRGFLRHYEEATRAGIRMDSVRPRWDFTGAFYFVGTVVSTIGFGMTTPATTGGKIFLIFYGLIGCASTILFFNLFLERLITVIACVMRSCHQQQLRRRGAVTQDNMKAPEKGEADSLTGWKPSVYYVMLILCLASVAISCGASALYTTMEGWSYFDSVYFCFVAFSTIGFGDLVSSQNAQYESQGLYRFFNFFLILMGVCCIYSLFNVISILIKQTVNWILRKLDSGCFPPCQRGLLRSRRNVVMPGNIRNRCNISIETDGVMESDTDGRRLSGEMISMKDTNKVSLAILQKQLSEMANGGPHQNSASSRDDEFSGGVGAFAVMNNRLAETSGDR
Sequence of p70S6K (h) (P23443 whole entry): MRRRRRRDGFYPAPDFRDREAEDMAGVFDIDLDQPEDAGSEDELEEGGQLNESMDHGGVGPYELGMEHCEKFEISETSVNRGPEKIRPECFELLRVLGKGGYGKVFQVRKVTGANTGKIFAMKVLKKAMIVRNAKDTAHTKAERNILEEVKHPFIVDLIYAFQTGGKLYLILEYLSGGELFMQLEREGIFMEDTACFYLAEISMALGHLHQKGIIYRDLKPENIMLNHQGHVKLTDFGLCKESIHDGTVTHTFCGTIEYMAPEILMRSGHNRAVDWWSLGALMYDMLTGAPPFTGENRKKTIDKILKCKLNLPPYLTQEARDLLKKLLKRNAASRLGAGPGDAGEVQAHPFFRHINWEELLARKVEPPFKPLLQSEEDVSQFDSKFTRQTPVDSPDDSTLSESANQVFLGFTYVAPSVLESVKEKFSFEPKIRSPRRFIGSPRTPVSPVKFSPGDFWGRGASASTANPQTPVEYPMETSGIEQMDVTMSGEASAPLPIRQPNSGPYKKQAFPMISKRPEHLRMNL
Sequence of ROCK-1 (h) (Q13464 whole entry): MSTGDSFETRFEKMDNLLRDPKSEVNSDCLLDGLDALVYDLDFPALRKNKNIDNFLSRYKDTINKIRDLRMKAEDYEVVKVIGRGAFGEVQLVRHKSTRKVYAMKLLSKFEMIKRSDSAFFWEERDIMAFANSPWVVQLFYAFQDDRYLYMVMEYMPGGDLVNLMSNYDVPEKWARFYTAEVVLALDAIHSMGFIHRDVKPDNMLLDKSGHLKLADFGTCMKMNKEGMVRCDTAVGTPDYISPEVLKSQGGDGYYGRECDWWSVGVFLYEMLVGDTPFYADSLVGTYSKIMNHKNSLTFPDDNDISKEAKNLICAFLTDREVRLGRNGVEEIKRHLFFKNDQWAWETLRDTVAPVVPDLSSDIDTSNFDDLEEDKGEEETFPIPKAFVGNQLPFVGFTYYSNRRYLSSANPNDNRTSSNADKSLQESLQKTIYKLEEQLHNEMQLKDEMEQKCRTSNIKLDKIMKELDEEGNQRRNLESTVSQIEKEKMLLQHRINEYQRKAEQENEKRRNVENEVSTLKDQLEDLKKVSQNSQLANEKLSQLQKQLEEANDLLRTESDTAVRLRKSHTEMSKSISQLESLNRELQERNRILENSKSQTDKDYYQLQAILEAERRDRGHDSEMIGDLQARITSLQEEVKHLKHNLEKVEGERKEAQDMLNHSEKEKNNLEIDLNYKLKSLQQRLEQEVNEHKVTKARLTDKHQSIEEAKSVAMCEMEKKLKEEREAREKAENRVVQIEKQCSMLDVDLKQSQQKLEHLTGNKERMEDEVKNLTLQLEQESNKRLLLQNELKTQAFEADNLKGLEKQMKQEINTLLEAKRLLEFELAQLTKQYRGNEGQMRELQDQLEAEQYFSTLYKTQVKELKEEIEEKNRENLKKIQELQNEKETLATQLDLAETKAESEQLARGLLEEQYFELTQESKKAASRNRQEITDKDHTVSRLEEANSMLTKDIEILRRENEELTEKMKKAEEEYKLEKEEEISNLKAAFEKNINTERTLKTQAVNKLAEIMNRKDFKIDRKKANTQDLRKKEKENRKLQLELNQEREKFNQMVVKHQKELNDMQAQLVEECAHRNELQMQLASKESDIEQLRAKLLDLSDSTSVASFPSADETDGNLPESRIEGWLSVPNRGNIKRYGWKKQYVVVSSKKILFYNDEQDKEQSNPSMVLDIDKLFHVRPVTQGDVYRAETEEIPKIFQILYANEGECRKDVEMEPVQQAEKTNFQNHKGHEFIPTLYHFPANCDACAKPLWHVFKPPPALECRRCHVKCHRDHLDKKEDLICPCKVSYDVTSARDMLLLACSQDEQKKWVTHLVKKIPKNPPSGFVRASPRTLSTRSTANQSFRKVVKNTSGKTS
Sequence of ROCK-2 (h) (O75116 whole entry): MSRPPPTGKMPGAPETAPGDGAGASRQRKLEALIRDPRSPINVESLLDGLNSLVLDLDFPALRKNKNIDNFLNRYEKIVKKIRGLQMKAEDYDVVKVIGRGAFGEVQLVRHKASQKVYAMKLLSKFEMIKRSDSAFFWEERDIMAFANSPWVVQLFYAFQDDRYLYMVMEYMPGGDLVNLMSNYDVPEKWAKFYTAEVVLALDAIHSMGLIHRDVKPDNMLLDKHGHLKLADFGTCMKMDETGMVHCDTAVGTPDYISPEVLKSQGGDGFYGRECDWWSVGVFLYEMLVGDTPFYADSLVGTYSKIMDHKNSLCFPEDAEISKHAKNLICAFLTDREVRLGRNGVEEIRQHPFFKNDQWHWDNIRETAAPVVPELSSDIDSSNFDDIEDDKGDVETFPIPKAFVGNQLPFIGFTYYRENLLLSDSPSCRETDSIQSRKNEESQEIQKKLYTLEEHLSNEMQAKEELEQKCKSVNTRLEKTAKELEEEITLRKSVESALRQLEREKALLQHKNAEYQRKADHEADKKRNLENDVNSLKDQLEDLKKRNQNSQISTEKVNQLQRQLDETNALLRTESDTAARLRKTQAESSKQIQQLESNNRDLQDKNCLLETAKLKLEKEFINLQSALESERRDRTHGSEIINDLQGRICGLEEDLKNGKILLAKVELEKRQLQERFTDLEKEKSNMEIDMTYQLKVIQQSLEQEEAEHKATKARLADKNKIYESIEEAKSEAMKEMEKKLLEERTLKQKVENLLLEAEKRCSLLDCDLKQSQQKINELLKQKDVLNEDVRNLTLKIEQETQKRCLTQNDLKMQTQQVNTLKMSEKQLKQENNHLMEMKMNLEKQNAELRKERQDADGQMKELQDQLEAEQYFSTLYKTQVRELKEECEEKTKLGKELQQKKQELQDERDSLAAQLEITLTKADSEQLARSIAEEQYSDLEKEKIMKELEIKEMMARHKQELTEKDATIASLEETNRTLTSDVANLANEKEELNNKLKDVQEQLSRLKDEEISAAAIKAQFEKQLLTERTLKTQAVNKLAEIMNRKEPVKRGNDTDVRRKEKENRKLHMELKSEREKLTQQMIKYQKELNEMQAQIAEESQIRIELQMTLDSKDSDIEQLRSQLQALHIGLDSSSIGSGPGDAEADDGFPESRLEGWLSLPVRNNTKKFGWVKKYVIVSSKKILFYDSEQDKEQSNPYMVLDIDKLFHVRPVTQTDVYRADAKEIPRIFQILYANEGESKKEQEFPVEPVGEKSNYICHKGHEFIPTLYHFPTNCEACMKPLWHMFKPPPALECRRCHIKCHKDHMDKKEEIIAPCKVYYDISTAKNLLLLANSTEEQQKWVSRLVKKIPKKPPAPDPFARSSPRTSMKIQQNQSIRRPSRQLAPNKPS
Sequence of GSK3β (h) (P49841 whole entry): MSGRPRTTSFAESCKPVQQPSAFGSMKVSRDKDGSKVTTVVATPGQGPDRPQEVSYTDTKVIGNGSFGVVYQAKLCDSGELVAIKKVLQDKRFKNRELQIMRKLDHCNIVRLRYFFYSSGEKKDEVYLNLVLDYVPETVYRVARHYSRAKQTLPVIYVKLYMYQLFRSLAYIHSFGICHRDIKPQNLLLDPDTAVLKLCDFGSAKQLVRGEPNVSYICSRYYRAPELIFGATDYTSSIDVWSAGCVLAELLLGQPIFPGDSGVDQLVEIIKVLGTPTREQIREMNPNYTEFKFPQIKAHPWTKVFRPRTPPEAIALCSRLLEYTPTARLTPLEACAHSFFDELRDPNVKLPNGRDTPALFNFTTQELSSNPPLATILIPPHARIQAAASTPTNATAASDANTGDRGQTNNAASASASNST

SMILES: Nc1nonc1-c1nc2ccccc2n1Cc1ccncc1 [C101248]
- effect on microglial resting membrane potential ([1]; 5 μM, current-clamp, no externally applied ATP): significantly depolarised
- effect on 100 μM ATP-evoked THIK-1 K+ currents ([1]; 0.05, 0.5 and 5 μM, microglia voltage-clamped at 0 mV): dose-dependently inhibited
- Kp (CNS PK study in rats): 0.55 to 0.95
- IC50 (GSK3β (h)): > 10 µM
- IC50 (PKA (h)): > 10 µM
- IC50 (ROCK-1 (h)): > 10 µM
- IC50 (ROCK-2 (h)): > 10 µM
- IC50 (Syk (h)): > 10 µM
- IC50 (p70S6K (h)): > 10 µM
